# Data as given in PMC3582657 (Clinical pharmacology and therapeutics, 2008).
# Where “and” joins values, the source holds several entries; their conditions need not be identical. Identical values can stand only once. Like-named read-outs stand apart in the source and are kept apart here.
# Assays:
# [1] = background statement, no reference given; cited from earlier work
# [2] = mean±SD; for CL renal: human, urine, CLr (renal clearance)
# [3] = assay type: in vivo, human
# [4] = multiple doses of rifampin; cited from earlier work
# [5] = Safety assessment in the clinical study; assay type: in vivo, human
# blood glucose [6] = test: Blood glucose level after glyburide dosing; assay type: in vivo, human; conditions: rifampin IV (Treatment C) phase in comparison to other treatment groups; repeated ANOVA p<0.0001
# blood glucose [7] = conditions: concomitant rifampin versus control; cited from earlier work
# P-glycoprotein (P-gp) = conditions: cited from earlier work
# [8] = Treatment A: 1.25 mg oral glyburide alone (control), mean±SD, n=9
# [9] = Treatment A: 1.25 mg oral glyburide alone (control), median and range
# [10] = Treatment A: 1.25 mg oral glyburide alone (control), plasma, mean±SD, n=9
# [11] = Treatment B (ciprofloxacin IV phase) vs Treatment A
# [12] = Treatment B: 200 mg iv ciprofloxacin just before 1.25 mg oral glyburide, median and range
# [13] = Treatment C (rifampin IV phase) vs Treatment A
# [14] = Treatment C: single 600 mg iv rifampin then 1.25 mg oral glyburide, mean±SD, n=9
# [15] = Treatment D (rifampin IV after oral induction) compared with Treatment E
# [16] = Treatment D (rifampin IV after oral induction) compared with control Treatment A
# [17] = Treatment D (rifampin IV/PO phase) vs Treatment A
# [18] = Treatment D: 600 mg oral rifampin daily for 6 days, next day 600 mg iv rifampin then 1.25 mg oral glyburide, median and range
# [19] = Treatment E (rifampin PO phase) vs Treatment A
# [20] = iv rifampin effect under induced conditions (Treatment D / Treatment E)
# [21] = iv rifampin effect under noninduced conditions (Treatment C / Treatment A)
# [22] = single IV infusion of rifampin (Treatment C) compared with control Treatment A
# [23] = single IV infusion of rifampin (Treatment C) vs control Treatment A
smiles,measurement,setting,value
COc1ccc(Cl)cc1C(=O)NCCc1ccc(S(=O)(=O)NC(=O)N[C@@H]2CCC[C@H](O)C2)cc1 (relative stereo) [3-cis-hydroxyglyburide],hypoglycemic activity (potency) retained relative to the parent compound,[1],50%
"COc1ccc(Cl)cc1C(=O)NCCc1ccc(S(=O)(=O)NC(=O)NC2CCC(O)CC2)cc1 (stereo not drawn) [4-hydroxyglyburide, 4-trans-hydroxyglyburide]",0–12h accumulated urine excretion,"[2]; Treatment A, glyburide control",358 ± 107 µg
same,CLr (renal clearance),"[2]; Treatment A, glyburide control",2200 ± 619 mL/day/kg
same,0–12h accumulated urine excretion,"[2]; Treatment B, ciprofloxacin IV",325 ± 77 µg
same,CLr (renal clearance),"[2]; Treatment B, ciprofloxacin IV",2220 ± 564 mL/day/kg
same,0–12h accumulated urine excretion,"[2]; Treatment C, rifampin IV",457 ± 72 µg
same,CLr (renal clearance),"[2]; Treatment C, rifampin IV",2120 ± 629 mL/day/kg
same,0–12h accumulated urine excretion,"[2]; Treatment D, rifampin IV/PO",208±56 ^** ug
same,CLr (renal clearance),"[2]; Treatment D, rifampin IV/PO",2100 ± 401 mL/day/kg
same,0–12h accumulated urine excretion,"[2]; Treatment E, rifampin PO",135 ± 40 µg
same,CLr (renal clearance),"[2]; Treatment E, rifampin PO",2200 ± 665 mL/day/kg
same,AUCm/AUCp (AUC ratio of 4-hydroxyglyburide to glyburide),"[3]; Treatment A, glyburide control, mean±SD",3.67±1.03%
same,MRT,[3]; [8],1.6 ± 0.9 h
same,t1/2,[3]; [8],4.2 ± 1.7 h
same,Tmax,[3]; [9],4(3–6) h
same,AUC0-∞,[3]; [10],66.0 ± 23.2 ng·h/mL
same,Cmax,[3]; [10],9.67 ± 2.51 ng/mL
same,"AUC0-∞, mean % of control",[3]; [11],101 % of control
same,"Cmax, mean % of control",[3]; [11],99 % of control
same,"MRT, mean % of control",[3]; [11],89 % of control
same,"t1/2, mean % of control",[3]; [11],115 % of control
same,AUCm/AUCp (AUC ratio of 4-hydroxyglyburide to glyburide),"[3]; Treatment B, ciprofloxacin IV, mean±SD",3.34±0.37%
same,Tmax,[3]; [12],4(3–8) h
same,"AUC0-∞, mean % of control",[3]; [13],145 % of control
same,"Cmax, mean % of control",[3]; [13],134 % of control
same,"MRT, mean % of control",[3]; [13],121 % of control
same,"t1/2, mean % of control",[3]; [13],102 % of control
same,AUCm/AUCp (AUC ratio of 4-hydroxyglyburide to glyburide),"[3]; Treatment C, rifampin IV, mean±SD",2.36±0.61 %
same,MRT,[3]; [14],1.5 ± 0.8 h
same,t1/2,[3]; [14],3.8 ± 0.7 h
same,Tmax,"[3]; Treatment C: single 600 mg iv rifampin then 1.25 mg oral glyburide, median and range",4(3–6) h
same,increase in AUC,[3]; [15],67±44%
same,increase in Cmax,[3]; [15],49±44%
same,decrease in Cmax,[3]; [16],not significant
same,"AUC0-∞, mean % of control",[3]; [17],54 % of control
same,"Cmax, mean % of control",[3]; [17],81 % of control
same,"MRT, mean % of control",[3]; [17],77 % of control
same,decrease in mean residence time (MRT),[3]; Treatment D versus control Treatment A,23%
same,AUCm/AUCp (AUC ratio of 4-hydroxyglyburide to glyburide),"[3]; Treatment D, rifampin IV/PO, mean±SD",2.52±0.35 %
same,Tmax,[3]; [18],4(3–6) h
same,"AUC0-∞, mean % of control",[3]; [19],33 % of control
same,"Cmax, mean % of control",[3]; [19],56 % of control
same,"MRT, mean % of control",[3]; [19],41 % of control
same,AUCm/AUCp (AUC ratio of 4-hydroxyglyburide to glyburide),"[3]; Treatment E, rifampin PO, mean±SD",3.36±0.60%
same,"AUC0-∞, ratio D to E",[3]; [20],1.7±0.4
same,"Cmax, ratio D to E",[3]; [20],1.5±0.4
same,"MRT, ratio D to E",[3]; [20],1.3±1.3
same,"AUC0-∞, ratio C to A",[3]; [21],1.5±0.4
same,"Cmax, ratio C to A",[3]; [21],1.3±0.5
same,"MRT, ratio C to A",[3]; [21],1.2±0.9
same,increase in AUC0-∞,[3]; [22],45 ± 37%
same,increase in Cmax,[3]; [22],34 ± 47%
same,hypoglycemic activity (potency) retained relative to the parent compound,[1],75%
COc1ccc(Cl)cc1C(=O)NCCc1ccc(S(=O)(=O)NC(=O)NC2CCCCC2)cc1 [glyburide],decrease in AUC of glyburide by rifampin,[4],39%
same,decrease in maximal concentration (Cmax) of glyburide by rifampin,[4],22%
same,serious adverse events,"[5]; during or after the study, all treatments",No serious adverse events
same,0–12h accumulated urine excretion,"[2]; Treatment A, glyburide control",1.8 ± 1.1 µg
same,0–12h accumulated urine excretion,"[2]; Treatment B, ciprofloxacin IV",1.7 ± 0.6 µg
same,0–12h accumulated urine excretion,"[2]; Treatment C, rifampin IV",3.9 ± 1.3 µg
same,0–12h accumulated urine excretion,"[2]; Treatment D, rifampin IV/PO",1.4 ± 0.5 µg
same,0–12h accumulated urine excretion,"[2]; Treatment E, rifampin PO",1.3 ± 0.7 µg
same,CL renal,"[2]; iv, Treatment B, ciprofloxacin IV",0.36 mL/day/kg
same,CL renal,"[2]; iv, Treatment C, rifampin IV",0.384 mL/day/kg
same,CL renal,"[2]; oral, 1.25 mg, Treatment A, glyburide control",0.408 mL/day/kg
same,CL renal,"[2]; oral, Treatment D, rifampin IV/PO",0.384 mL/day/kg
same,CL renal,"[2]; po, 1.25 mg, Treatment E, rifampin PO",0.744 mL/day/kg
same,CL/F,[3]; [8],10.1±3.1 mI/h/kg
same,Vss/F,[3]; [8],49±33 mI/kg
same,Tmax,[3]; [9],3(2–4) h
same,"AUC0-∞, mean % of control",[3]; [11],107 % of control
same,"Cmax, mean % of control",[3]; [11],95 % of control
same,"MRT, mean % of control",[3]; [11],119 % of control
same,"t1/2, mean % of control",[3]; [11],108 % of control
same,Tmax,[3]; [12],3(2–6) h
same,"AUC0-∞, mean % of control",[3]; [13],225 % of control
same,"Cmax, mean % of control",[3]; [13],181 % of control
same,"MRT, mean % of control",[3]; [13],84 % of control
same,"t1/2, mean % of control",[3]; [13],84 % of control
same,CL/F,[3]; [14],4.59±1.20 mI/h/kg
same,Vss/F,[3]; [14],16±7 mI/kg
same,increase in AUC,[3]; [15],120±56%
same,increase in Cmax,[3]; [15],92±76%
same,decrease in AUC0-∞,[3]; [16],22±21% and 22%
same,decrease in Cmax,[3]; [16],9±0.3% and 8%
same,"AUC0-∞, mean % of control",[3]; [17],78 % of control
same,"Cmax, mean % of control",[3]; [17],91 % of control
same,"MRT, mean % of control",[3]; [17],61 % of control
same,Tmax,[3]; [18],3(2–4) h
same,"AUC0-∞, mean % of control",[3]; [19],37 % of control
same,"Cmax, mean % of control",[3]; [19],52 % of control
same,"MRT, mean % of control",[3]; [19],53 % of control
same,change in any pharmacokinetic parameter,[3]; ciprofloxacin co-administered with glyburide (Treatment B) vs Treatment A,No significant changes in any parameter
same,Tmax,"[3]; human, plasma, oral",3 h
same,Tmax,"[3]; human, plasma, po, 1.25 mg",3 h
same,AUC(0-inf),"[3]; human, plasma, po, 1.25 mg, AUC0-∞, Treatment A: 1.25 mg oral glyburide alone (control), plasma, mean±SD, n=9",1890 ± 682 ng·h/mL
same,Cmax,"[3]; human, plasma, po, 1.25 mg, Cmax, Treatment A: 1.25 mg oral glyburide alone (control), plasma, mean±SD, n=9",384 ± 135 ng/mL
same,MRT,"[3]; human, plasma, po, 1.25 mg, MRT, Treatment A: 1.25 mg oral glyburide alone (control), mean±SD, n=9",4.5 ± 2 h
same,half-life,"[3]; human, plasma, po, 1.25 mg, t1/2, Treatment A: 1.25 mg oral glyburide alone (control), mean±SD, n=9",4.7 ± 1.3 h
same,increase in AUC0-∞,[3]; [22],125± 51.5% and 125%
same,increase in Cmax,[3]; [22],81 ± 28% and 81%
same,change in apparent terminal half-life (t1/2),[3]; single IV infusion of rifampin (Treatment C) vs control,did not change
same,decrease in oral clearance (CL/F),[3]; [23],53 ± 13%
same,decrease in oral steady-state volume of distribution (Vss/F),[3]; [23],60 ± 29%
same,decremental AUC0–12 of blood glucose,blood glucose [6],statistically significant decrease
same,change in blood glucose decremental AUC(0–7) (net area below baseline),blood glucose [7],−44%
same,change in maximum decrease in the blood glucose concentration,blood glucose [7],−36%
CO[C@H]1/C=C/O[C@@]2(C)Oc3c(C)c(O)c4c(O)c(c(/C=N/N5CCN(C)CC5)c(O)c4c3C2=O)NC(=O)/C(C)=C\C=C\[C@H](C)[C@H](O)[C@@H](C)[C@@H](O)[C@@H](C)[C@H](OC(C)=O)[C@@H]1C [rifampin],adverse event leading to withdrawal,"[5]; one subject, after visit 3",allergy to rifampin
same,inhibition of Pgp,P-glycoprotein (P-gp),does not inhibit Pgp
